Laboratory results taken from patent US5747500A, “Antiviral 2, 4-pyrimidinedione derivatives” (priority 1993, dated 1998).
Values after ≈ are worked out from the molar mass of the structure shown.

Key:
HIV = assay: inhibition of HIV-induced cytopathic effect in MT-4 cells (MTT method); type: cell-based; conditions: for EC50: Human immunodeficiency virus 1, MT4, HIV-infected MT-4 cells, 1000 CCID50, 4 or 5 day incubation at 37° C., MTT method, read-out: ED50: Effective concentration for the inhibition of the proliferation of HIV by 50%; for S.I.: Selectivity index (CD50/ED50): ratio CD50/ED50, MT-4 cells
Method: The anti-HIV assays were based on the inhibition of the virus-induced cytopathic effect in MT-4 cells as described in J. Virol. Methods, 16, 171 (1987). Briefly, MT-4 cells were suspended in culture medium at 2.5×10^5 cells/ml and infected with 1000 CCID50 (50% cell culture infective dose) of HIV. Immediately, after virus infection, 100 μl of the cell suspension was brought into each well of a flat-bottomedmicrotiter tray containing various concentrations of the test compounds. After a 4 or 5 day incubation at 37° C., the number of viable cells was determined by the 3-(4,5-dimethylthiazol-2-yl)-2,5-diphenyltetrazoliumbromide (MTT) method, as disclosed in J. Virol. Methods, 20, 309 (1988).
ED50 : Effective concentration for the inhibition of the
proliferation of HIV by 50%

[1] = cytotoxicity: viability of mock-infected MT-4 host cells (MTT method); type: cell-based; conditions: human, mt-4 cells, read-out: CD50: Cytotoxic concentration that causes death of cells by 50%
Method: The cytotoxicity of the compounds of the present invention was assessed in parallel with their antiviral activity. It was based on the viability of mock-infected host cells as determined by the MTT methods (se J. Virol. Methods, 20, 309 (1988)).
CD50 : Cytotoxic concentration that causes death of cells by 50%

Structure (SMILES): CCc1c(C(=O)c2cc(C)cc(C)c2)n(C/C=C/CO)c(=O)[nH]c1=O [Example 84]
- EC50 (HIV): < 0.009 µg/mL
- S.I.: Selectivity index (CD50/ED50) (HIV): > 6,160
- CC50 [1]: 55.4 µg/mL (≈ 162 µM)

Structure (SMILES): CC#CCn1c(Oc2cc(C)cc(C)c2)c(CC)c(=O)[nH]c1=O [Example 58]
- EC50 (HIV): < 0.34 µg/mL
- S.I.: Selectivity index (CD50/ED50) (HIV): > 143
- CC50 [1]: 48.9 µg/mL (≈ 157 µM)

Structure (SMILES): C=CCn1c(Sc2cc(C)cc(C)c2)c(CC)c(=O)[nH]c1=O [Example 18, 1-allyl-5-ethyl-6-(3,5-dimethylphenylthio)-2,4-pyrimidinedione]
- EC50 (HIV): < 0.032 µg/mL
- S.I.: Selectivity index (CD50/ED50) (HIV): > 121
- CC50 [1]: 3.9 µg/mL (≈ 12.3 µM)

Structure (SMILES): CCc1c(C(=O)c2cc(C)cc(C)c2)n(CC=C(C)C)c(=O)[nH]c1=O [Example 7, 1-(3-methyl-2-butenyl)-5-ethyl-6-(3,5-dimethylbenzoyl)-2,4-pyrimidinedione]
- EC50 (HIV): < 0.33 µg/mL
- S.I.: Selectivity index (CD50/ED50) (HIV): > 84
- CC50 [1]: 27.8 µg/mL (≈ 81.8 µM)

Structure (SMILES): C/C=C\Cn1c(Oc2cc(C)cc(C)c2)c(CC)c(=O)[nH]c1=O [Example 70, 1-(cis-2-butenyl)-5-ethyl-6-(3,5-dimethylphenoxy)-2,4-pyrimidinedione]
- EC50 (HIV): < 0.01 µg/mL
- S.I.: Selectivity index (CD50/ED50) (HIV): > 7,381
- CC50 [1]: 73.8 µg/mL (≈ 235 µM)

Structure (SMILES): CCc1c(Cc2cc(C)cc(C)c2)n(CC#Cc2ccccc2)c(=O)[nH]c1=O [Example 40, 1-(3-phenyl-2-propynyl)-5-ethyl-6-(3,5-dimethylbenzyl)-2,4-pyrimidinedione]
- EC50 (HIV): < 0.009 µg/mL
- S.I.: Selectivity index (CD50/ED50) (HIV): > 557
- CC50 [1]: 5.02 µg/mL (≈ 13.5 µM)

Structure (SMILES): Cc1cc(C)cc(C(=O)c2c(C(C)C)c(=O)[nH]c(=O)n2C/C=C/CO)c1 [Example 76, 1-(4-hydroxy-trans-2-butenyl)-5-isopropyl-6-(3,5-dimethylbenzoyl)-2,4-pyrimidinedione]
- EC50 (HIV): < 0.025 µg/mL
- S.I.: Selectivity index (CD50/ED50) (HIV): > 1,679
- CC50 [1]: 42 µg/mL (≈ 118 µM)

Structure (SMILES): CCc1c(Oc2cc(C)cc(C)c2)n(C/C=C/C(=O)OC)c(=O)[nH]c1=O [Example 63]
- EC50 (HIV): < 0.032 µg/mL
- S.I.: Selectivity index (CD50/ED50) (HIV): > 224
- CC50 [1]: 7.17 µg/mL (≈ 20 µM)

Structure (SMILES): CC#CCn1c(Sc2cc(C)cc(C)c2)c(C(C)C)c(=O)[nH]c1=O [Example 31, 1-(2-butynyl)-5-isopropyl-6-(3,5-dimethylphenylthio)-2,4-pyrimidinedione]
- EC50 (HIV): < 0.32 µg/mL
- S.I.: Selectivity index (CD50/ED50) (HIV): > 52
- CC50 [1]: 16.9 µg/mL (≈ 49.5 µM)

Structure (SMILES): CC/C=C/Cn1c(Oc2cc(C)cc(C)c2)c(CC)c(=O)[nH]c1=O [Example 62]
- EC50 (HIV): < 0.032 µg/mL
- S.I.: Selectivity index (CD50/ED50) (HIV): > 251
- CC50 [1]: 8.05 µg/mL (≈ 24.5 µM)

Structure (SMILES): CCc1c(Sc2cc(C)cc(C)c2)n(C/C=C\CCl)c(=O)[nH]c1=O [Example 23]
- EC50 (HIV): < 0.93 µg/mL
- S.I.: Selectivity index (CD50/ED50) (HIV): > 41
- CC50 [1]: 38.2 µg/mL (≈ 105 µM)

Structure (SMILES): C/C=C/Cn1c(Sc2cc(C)cc(C)c2)c(CC)c(=O)[nH]c1=O [Example 19]
- S.I.: Selectivity index (CD50/ED50) (HIV): > 971
- CC50 [1]: 8.74 µg/mL (≈ 26.4 µM)

Structure (SMILES): CCOCn1c(Cc2cc(C)cc(C)c2)c(CC)c(=O)[nH]c1=O [Ref. 1, 1ethoxymethyl-5-ethyl-6-(3,5-dimethylbenzyl)-2,4-pyrimidinedione, reference compound]
- EC50 (HIV): < 0.009 µg/mL
- S.I.: Selectivity index (CD50/ED50) (HIV): > 4,962
- CC50 [1]: 44.7 µg/mL (≈ 141 µM)
